Measured values as given in PubChem BioAssay (NCI).
“And” between values parts separate entries of the source, which are not always exact repeats. Equal entries are not always repeated.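 Five compound concentrations were applied to cells in 96-well plates for 48 hours; endpoints were derived by simple linear interpolation of the resulting dose-response curve. GI50 = concentration required for 50% inhibition of growth. Definition used: TGI = concentration required for complete inhibition of growth.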

Key:
Assay in all cases: inhibition of tumour cell growth, NCI panel, 48 h
[1] = test system: HCC-2998 colon
[2] = test system: OVCAR-8 ovarian
[3] = test system: RXF 393 renal
[4] = test system: 786-0 renal
[5] = test system: COLO 205 colon
[6] = test system: HCT-15 colon
[7] = test system: UACC-62 melanoma
[8] = test system: UO-31 renal
[9] = test system: RPMI-8226 leukemia
[10] = test system: A549 NSCLC

SMILES	GI50 [1]	TGI [1]	GI50 [2]	TGI [2]	GI50 [3]	TGI [3]	GI50 [4]	TGI [4]	GI50 [5]	TGI [5]	GI50 [6]	TGI [6]	GI50 [7]	TGI [7]	GI50 [8]	TGI [8]	GI50 [9]	TGI [9]	GI50 [10]	TGI [10]
CCOc1nc(-c2ccccc2)cc2c(O)c(-c3nnco3)[nH]c(=O)c12	5570 nM	> 100 µM	4.24 µM	> 100 µM	3.71 µM	25.2 µM	6.17 µM	31.9 µM	5740 nM	> 100 µM	3.66 µM	> 100 µM	6470 nM	> 100 µM	2110 nM	> 100 µM	4110 nM	> 100 µM	4.55 µM	> 100 µM
Cc1ccccc1N1C(=O)/C(=C/c2ccc(N(CCC#N)CCC#N)cc2)N=C1c1cc([N+](=O)[O-])ccc1Cl		> 100 µM						> 100 µM		72 µM		> 100 µM		> 100 µM		> 100 µM		> 100 µM		
CNCCNc1c2c(c(NCCNC)c3c(CN(C)C)c[nH]c13)C(=O)c1ccccc1C2=O	1360 nM	5.37 µM	3.28 µM	13.6 µM	2.5 µM	11 µM	4.87 µM	19.5 µM		> 34.5 µM	5.7 µM	20.5 µM	2780 nM	19.7 µM	3000 nM	14.4 µM	938 nM	5.2 µM	3.42 µM	11.2 µM
OCCN1CN(CCO)CN(c2nc(N3CN(CCO)CN(CCO)C3)nc(N3CN(CCO)CN(CCO)C3)n2)C1				0.0133 µg/mL			0.631 ng/mL	0.968 ng/mL					0.991 ng/mL	3.31 ng/mL	1.5 ng/mL	4.4 ng/mL		0.63 ng/mL		0.0695 µg/mL
CC1OC(n2cc(F)c(=O)[nH]c2=O)C=CC1O (stereo not drawn)		> 100 µM		> 100 µM		> 100 µM		> 100 µM		> 100 µM		> 100 µM		> 100 µM		> 100 µM		> 100 µM		> 100 µM
O=S(O)CCCCSSCC(O)C(O)CSSCCCCS(=O)O (stereo not drawn)				96.5 µM and > 100 µM		38 µM and 89.8 µM		> 100 µM		29 µM and 39.5 µM		> 100 µM		25.6 µM and 38.2 µM		67.3 µM and 79.5 µM		46.4 µM and 46.1 µM		> 100 µM
CCOP(=O)(Cc1ccc(CP(=O)(OCC)OCC)n1C)OCC		> 100 µM		> 100 µM		> 100 µM		> 100 µM		> 100 µM		> 100 µM		> 100 µM		> 100 µM		> 100 µM		> 100 µM
C[C@H]1c2cccc(O)c2C(O)=C2C(=O)[C@]3(O)C(O)=C(C(N)=O)C(=O)[C@@H](N(C)C)[C@@H]3[C@@H](O)[C@@H]21	2970 nM	12.7 µM	3.29 µM	14.7 µM	3.79 µM	33.9 µM	3.26 µM	12.5 µM	1880 nM	3.63 µM	3.46 µM	16 µM	2530 nM	9.68 µM	3150 nM	15.1 µM			3.22 µM	13.2 µM
COc1ccc(N(C)c2ncnc3occ(C)c23)cc1	< 10 nM	0.0463 µM	< 0.01 µM	> 100 µM			< 0.01 µM	> 100 µM	< 10 nM	< 0.0105 µM	< 0.01 µM		< 10 nM	> 100 µM	< 10 nM	> 100 µM	< 10 nM	< 0.01 µM	< 0.01 µM	> 100 µM
CCCCCCCCCC/C=C/CC(=O)SCCNC(=O)CCNC(=O)[C@@H](O)C(C)(C)COP(=O)(O)OP(=O)(O)OCC1OC(n2cnc3c(N)ncnc32)C(O)C1OP(=O)(O)O (stereo partly drawn)		> 10 µM		> 10 µM		> 10 µM		> 10 µM		> 10 µM		> 10 µM		> 10 µM				> 10 µM		> 10 µM
COc1cc(C(=O)c2cc(C)c3[nH]c4ccc(Cl)cc4c3c2C)cc(OC)c1OC	54.8 nM	5.29 µM	0.0439 µM	10.7 µM			0.0634 µM	6.19 µM	517 nM	2.36 µM	0.0355 µM	4.25 µM	37.6 nM	8.4 µM	120 nM	11.5 µM	42.1 nM	18.6 µM	0.134 µM	28.7 µM
C#Cc1cccc(Nc2ncnc3cc(OC)c(OCCCCCCC(=O)NO)cc23)c1	217 nM	1.34 µM	0.117 µM	4.43 µM	0.0752 µM	0.367 µM	0.448 µM	4.68 µM	157 nM	0.538 µM	1.17 µM	6.1 µM	79.7 nM	0.344 µM	141 nM	2.69 µM	302 nM	1.78 µM	0.404 µM	4.45 µM
CNCCCn1cc(C2=C(c3cn(C)c4ccccc34)C(=O)NC2=O)c2ccccc21	5130 nM	11.7 µM	4.99 µM	12.6 µM	3.48 µM	6.95 µM	4.77 µM	11.3 µM	1950 nM	5.52 µM	6.04 µM	22.7 µM	3960 nM	7.67 µM	3580 nM	11.8 µM	5120 nM	11.7 µM	4.09 µM	10.8 µM
Cc1ccc(S(=O)(=O)NCC2CCCCC2=O)cc1 (stereo not drawn)				> 100 µM		> 100 µM		> 100 µM		> 100 µM		> 100 µM		> 100 µM		> 100 µM		> 100 µM		> 100 µM
CCN(CC)CCOc1ccc(/C=C(\C#N)c2ccc(OCCN(CC)CC)cc2)cc1		32.3 µM		42.6 µM		27.9 µM		25.5 µM		23 µM		30.8 µM		31.9 µM		31.2 µM		50.1 µM		44.7 µM
COc1ccc(OC)c(NC(=O)C(=O)NNC(=O)c2sc(NNC(C)=O)nc2C)c1		> 100 µM		> 100 µM				> 100 µM				> 100 µM		81.5 µM		> 100 µM		> 100 µM		> 100 µM
